Test results from patent publication US8232273B2, “Heterocyclic compounds and methods of use” (Genentech, Inc., priority 2008, dated 2012).

Tests used:
Bcl-xL (GST-Bcl-xL) [1] = target: T1, Bcl-xL (GST-Bcl-xL) (Homo sapiens, UniProt Q07817); assay: TR-FRET binding assay, competition with F-Bak for the Bcl-xL binding site; conditions: values listed in the order of Table 1, read-out: TR-FRET assay results (Ki), Bcl-xL
platelets = assay: Cell viability assay for platelets (platelet rich plasma, CellTiter-Glo); format: cell-based; conditions: approximately 4 hours at 37 C
Description: Platelet rich plasma (PRP) was incubated with a compound of the invention for approximately 4 hours at 37° C. After incubation, platelets were equilibrated to room temperature for 20 minutes and then and equal volume of CELL TITER-GLO™ reagent (Promega Corporation) was added. Samples were mixed for two minutes and then allowed to equilibrate for an additional 10 minutes at room temperature. The luminescence generated from the samples was quantitated using a LJL Analyst plate reader. Data analysis was performed using GraphPad Prism 4.0.

Bcl-2 (GST-Bcl-2) = target: T2, Bcl-2 (GST-Bcl-2) (Homo sapiens, UniProt P10415); assay: TR-FRET binding assay, competition with F-Bak for the Bcl-2 binding site; conditions: Bcl-2, for comparison (selectivity)
T2 construct: made in house
T2 sequence (P10415 whole entry, species assumed): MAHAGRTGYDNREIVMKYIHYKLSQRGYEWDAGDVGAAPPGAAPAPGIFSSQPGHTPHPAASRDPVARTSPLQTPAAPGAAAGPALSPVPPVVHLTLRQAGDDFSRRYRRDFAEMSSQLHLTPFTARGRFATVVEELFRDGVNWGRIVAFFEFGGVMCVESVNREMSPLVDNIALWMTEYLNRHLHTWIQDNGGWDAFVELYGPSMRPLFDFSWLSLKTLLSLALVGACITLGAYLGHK
Description: For each assay plate, a probe/antibody and protein/antibody/probe mixture were included as a negative and a positive control, respectively. Fluorescence was measured on the Envision (Perkin Elmer) using a 340/35 nm excitation filter and 520/525 (F-Bak) and 495/510 nm (Tb-labeled anti-his antibody) emission filters. Dissociation constants (Ki) were determined using Wang's equation (see, Wang, Z. X. An exact mathematical expression for describing competitive binding of two different ligands to a protein molecule. FEBS Lett. 1995 360:111-114). The TR-FRET assay can be performed in the presence of varying concentrations of human serum (HS) or fetal bovine serum (FBS). For comparison, the measurement of the competition of compounds of the invention for other Bcl-2 family protein binding sites (e.g., Bcl-2, Mcl-1) using the TR-FRET binding assay was accomplish by substituting GST-Bcl-xL in the TR-FRET assay with other GST-labeled protein, e.g., GST-Bcl-2, GST-Mcl-1, prepared in-house.

Bcl-xL (GST-Bcl-xL) [2] = target: T1, Bcl-xL (GST-Bcl-xL); assay: AlphaScreen Bcl-xL binding assay, competition with biotinylated Bim peptide; set-up: made in house; conditions: values listed in the order of Table 1; read-out: Alphascreen results (IC50) against the Bcl-xL protein
Method in brief: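 Acceptor beads with GST-Bcl-xL were combined with donor beads carrying biotinylated Bim peptide after each bead mix was preincubated 30 min at room temperature. Compounds in DMSO, 2-fold serially diluted, were incubated 30 min at room temperature before donor addition, with duplicate plates. Percent inhibition was taken against no-protein and DMSO controls, and IC50 was calculated.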

T1 sequence (Q07817 whole entry, species assumed): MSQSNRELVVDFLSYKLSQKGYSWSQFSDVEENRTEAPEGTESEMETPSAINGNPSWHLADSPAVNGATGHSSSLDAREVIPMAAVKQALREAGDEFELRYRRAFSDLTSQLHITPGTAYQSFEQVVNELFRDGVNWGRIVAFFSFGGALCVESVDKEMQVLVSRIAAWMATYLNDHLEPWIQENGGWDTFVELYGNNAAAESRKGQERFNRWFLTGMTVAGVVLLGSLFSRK

| SMILES | Ki (Bcl-xL (GST-Bcl-xL) [1]) | EC50 (platelets) | Ki (Bcl-2 (GST-Bcl-2)) | IC50 (Bcl-xL (GST-Bcl-xL) [2]) |
| --- | --- | --- | --- | --- |
| CN1CCN(c2ncnc3c(-c4ccc(OCCCc5sc(N6CCc7cccc(C(=O)Nc8nc9ccccc9s8)c7C6)nc5C(=O)O)cc4)csc23)CC1 [Example 79, 2-[8-(Benzothiazol-2-ylcarbamoyl)-3,4-dihydro-1H-isoquinolin-2-yl]-5-(3-{4-[4-(4-methyl-piperazin-1-yl)-thieno[3,2-d]pyrimidin-7]-phenoxy}-propyl)-thiazole-4-carboxylic acid] | 0.1 nM | 3 nM | – | – |
| O=C(Nc1nc2ccccc2s1)c1cccc2c1CN(c1nc(C(=O)O)c(CCOc3ccccc3)s1)CC2 [Example 76, 2-(8-(benzo[d]thiazol-2-ylcarbamoyl)-3,4-dihydroisoquinolin-2(1H)-yl)-5-(2-phenoxyethyl)thiazole-4-carboxylic acid] | – | – | 350 nM | – |
| CN(C)CCOc1ccc(-c2ccc(OCCCc3sc(N4CCc5cccc(C(=O)Nc6nc7ccccc7s6)c5C4)nc3C(=O)O)cc2)nc1 [Example 90, 2-[8-(Benzothiazol-2-ylcarbamoyl)-3,4-dihydro-1H-isoquinolin-2-yl]-5-(3-{4-[5-(2-dimethylamino-ethoxy)-pyridin-2-yl]-phenoxy}-propyl)-thiazole-4-carboxylic acid] | 0.05 nM | 3 nM | – | – |
| CC(C)n1cnc2c(-c3ccc(OCCCc4sc(N5CCc6cccc(C(=O)Nc7nc8ccccc8s7)c6C5)nc4C(=O)O)cc3)ncnc21 [Example 52, 2-(8-(benzo[d]thiazol-2-ylcarbamoyl)-3,4-dihydroisoquinolin-2(1H)-yl)-5-(3-(4-(9-isopropyl-9H-purin-6-yl)phenoxy)propyl)thiazole-4-carboxylic acid] | 0.05 nM | – | 130 nM | – |
| O=C(Nc1nc2ccccc2s1)c1cccc2c1CN(c1nc(C(=O)O)c(CCNS(=O)(=O)c3cccc([N+](=O)[O-])c3)s1)CC2 [Example 70, 2-[8-(Benzothiazol-2-ylcarbamoyl)-3,4-dihydro-1H-isoquinolin-2-yl]-5-[2-(3-nitro-benzenesulfonylamino)-ethyl]thiazole-4-carboxylic acid] | 40 nM | – | 500 nM | 260 nM |
| O=C(Nc1nc2ccccc2s1)c1cccc2c1CN(c1nc(C(=O)O)c(CCCOc3ccc(-c4cccnc4)cc3)s1)CC2 [Example 41, 2-(8-(Benzo[d]thiazol-2-ylcarbamoyl)-3,4-dihydroisoquinolin-2(1H)-yl)-5-(3-(4-(pyridin-3-yl)phenoxy)propyl)thiazole-4-carboxylic acid] | 0.1 nM | – | – | 0.7 nM |
| O=C(Nc1nc2ccccc2s1)c1cccc2c1CN(c1nc(C(=O)O)c(CCCn3ccnc3)s1)CC2 [Example 16, 5-(3-(1H-imidazol-1-yl)propyl)-2-(8-(benzo[d]thiazol-2-ylcarbamoyl)-3,4-dihydroisoquinolin-2(1H)-yl)thiazole-4-carboxylic acid] | 6 nM | – | – | 10 nM |
| O=C(Nc1nc2ccccc2s1)c1cccc2c1CN(c1nc(C(=O)O)c(CCCOc3ccc(C4(c5ccccc5)CCCC4)cc3)s1)CC2 [Example 24, 2-(8-(benzo[d]thiazol-2-ylcarbamoyl)-3,4-dihydroisoquinolin-2(1H)-yl)-5-(3-(4-(1-phenylcyclopentyl)phenoxy)propyl)thiazole-4-carboxylic acid] | 7 nM | – | – | 27 nM |
| CN1CCN(c2cccc(OCCCc3ccc(N4CCc5cccc(C(=O)Nc6nc7ccccc7s6)c5C4)nc3C(=O)O)c2)CC1 [Example 105, 6-(8-(benzo[d]thiazol-2-ylcarbamoyl)-3,4-dihydroisoquinolin-2(1H)-yl)-3-(3-(3-(4-methylpiperazin-1-yl)phenoxy)propyl)picolinic acid] | 0.3 nM | – | – | 2.2 nM |
| O=C(Nc1nc2ccccc2s1)c1cccc2c1CN(c1nc(C(=O)O)c(CCCOc3ccc(-n4cccn4)cc3)s1)CC2 [Example 48, 5-(3-(4-(1H-pyrazol-1-yl)phenoxy)propyl)-2-(8-(benzo[d]thiazol-2-ylcarbamoyl)-3,4-dihydroisoquinolin-2(1H)-yl)thiazole-4-carboxylic acid] | 0.05 nM | – | – | 0.3 nM |
| O=C(Nc1nc2ccccc2s1)c1cccc2c1CN(c1ccc(-c3ccccc3)c(C(=O)O)n1)CC2 [Compound 125, 6-(8-(benzo[d]thiazol-2-ylcarbamoyl)-3,4-dihydroisoquinolin-2(1H)-yl)-3-phenylpicolinic acid] | 66.2 nM | – | – | 124 nM |
| O=C(Nc1nc2ccccc2s1)c1cccc2c1CN(c1nc(C(=O)O)c(CCCN3CCCCC3)s1)CC2 [Example 20, 2-(8-(benzo[d]thiazol-2-ylcarbamoyl)-3,4-dihydroisoquinolin-2(1H)-yl)-5-(3-(piperidin-1-yl)propyl)thiazole-4-carboxylic acid] | 3 nM | – | – | 8 nM |
| NCc1ccc(OCCCc2sc(N3CCc4cccc(C(=O)Nc5nc6ccccc6s5)c4C3)nc2C(=O)O)cc1 [Compound 141, 5-(3-(4-(aminomethyl)phenoxy)propyl)-2-(8-(benzo[d]thiazol-2-ylcarbamoyl)-3,4-dihydroisoquinolin-2(1H)-yl)thiazole-4-carboxylic acid] | 0.487 nM | – | – | 3800 nM |
| CC1(C)[C@H]2CC[C@]1(C)C(Oc1ccccc1OCCCc1sc(N3CCc4cccc(C(=O)Nc5nc6ccccc6s5)c4C3)nc1C(=O)O)C2 (stereo partly drawn) [Example 22, 2-(8-(benzo[d]thiazol-2-ylcarbamoyl)-3,4-dihydroisoquinolin-2(1H)-yl)-5-(3-(2-((1S,4S)-1,7,7-trimethylbicyclo[2.2.1]heptan-2-yloxy)phenoxy)propyl)thiazole-4-carboxylic acid] | 19 nM | – | – | 50 nM |
| O=C(Nc1nc2ccccc2s1)c1cccc2c1CN(c1nc(C(=O)O)c(CCCOc3ccc(-n4ncc5cncnc54)cc3)s1)CC2 [Example 21, 5-(3-(4-(1H-pyrazolo[3,4-d]pyrimidin-1-yl)phenoxy)propyl)-2-(8-(benzo[d]thiazol-2-ylcarbamoyl)-3,4-dihydroisoquinolin-2(1H)-yl)thiazole-4-carboxylic acid] | 0.05 nM | – | – | 0.3 nM |
| O=C(Nc1nc2ccccc2s1)c1cccc2c1CN(c1nc(C(=O)O)c(CCCOc3ccc4nc(N5CCN(c6ccccn6)CC5)sc4c3)s1)CC2 [Example 23, 2-(8-(benzo[d]thiazol-2-ylcarbamoyl)-3,4-dihydroisoquinolin-2(1H)-yl)-5-(3-(2-(4-(pyridin-2-yl)piperazin-1-yl)benzo[d]thiazol-6-yloxy)propyl)thiazole-4-carboxylic acid] | 2 nM | – | – | 1 nM |
| O=C(O)c1cccc(N2CCc3cccc(C(=O)Nc4nc5ccccc5s4)c3C2)n1 [Compound 120, 6-(8-(benzo[d]thiazol-2-ylcarbamoyl)-3,4-dihydroisoquinolin-2(1H)-yl)picolinic acid] | 150 nM | – | – | 310 nM |
| O=C(Nc1nc2ccccc2s1)c1cccc2c1CN(c1nc(C(=O)O)c(CCCN3CCCC3)s1)CC2 [Example 18, 2-(8-(benzo[d]thiazol-2-ylcarbamoyl)-3,4-dihydroisoquinolin-2(1H)-yl)-5-(3-(pyrrolidin-1-yl)propyl)thiazole-4-carboxylic acid] | 4 nM | – | – | 6 nM |
| N#Cc1cscc1-c1ccc(OCCCc2sc(N3CCc4cccc(C(=O)Nc5nc6ccccc6s5)c4C3)nc2C(=O)O)cc1 [Example 51, 2-[8-(Benzothiazol-2-ylcarbamoyl)-3,4-dihydro-1H-isoquinolin-2-yl]-5-{3-[4-(4-cyano-thiophen-3-yl)-phenoxy]-propyl}-thiazole-4-carboxylic acid] | 0.3 nM | – | – | 6 nM |
| CN(C)CC#Cc1ccc(OCCCc2sc(N3CCc4cccc(C(=O)Nc5nc6ccccc6s5)c4C3)nc2C(=O)O)c(Cl)c1 [Compound 119, 2-(8-(benzo[d]thiazol-2-ylcarbamoyl)-3,4-dihydroisoquinolin-2(1H)-yl)-5-(3-(2-chloro-4-(3-(dimethylamino)prop-1-ynyl)phenoxy)propyl)thiazole-4-carboxylic acid] | 0.04 nM | – | – | 0.2 nM |
| N#Cc1c(-c2ccc(OCCCc3sc(N4CCc5cccc(C(=O)Nc6nc7ccccc7s6)c5C4)nc3C(=O)O)cc2)n[nH]c1N [Example 31, 5-(3-(4-(5-amino-4-cyano-1H-pyrazol-3-yl)phenoxy)propyl)-2-(8-(benzo[d]thiazol-2-ylcarbamoyl)-3,4-dihydroisoquinolin-2(1H)-yl)thiazole-4-carboxylic acid] | 0.1 nM | – | – | 0.3 nM |
| Cc1ccccc1-c1ccc(N2CCc3cccc(C(=O)Nc4nc5ccccc5s4)c3C2)nc1C(=O)O [Compound 126, 6-(8-(benzo[d]thiazol-2-ylcarbamoyl)-3,4-dihydroisoquinolin-2(1H)-yl)-3-o-tolylpicolinic acid] | 197 nM | – | – | 77.6 nM |
